Reference: article PMC3585965 (Drugs in R&D, 2012)

Legend:
[1] = cited from earlier work
[2] = Study 2: pharmacokinetic drug-drug interaction GLPG0259 / methotrexate; type: in vivo, human; settings: methotrexate 7.5 mg

Q: For `CN(Cc1cnc2nc(N)nc(N)c2n1)c1ccc(C(=O)N[C@@H](CCC(=O)O)C(=O)O)cc1` [methotrexate], which “t1/2,λz, range of boundary values reported in the literature” value [1] is on record?
A: Its value is 6 to 69 h.

Q: And the “Cmax point estimate, with vs without GLPG0259” value ([2]; day 14 (GLPG0259 50 mg) vs day -7)?
A: Its value is 89.63%.

Q: What about the “AUC∞ point estimate, with vs without GLPG0259” value ([2]; day 14 vs day -7) of the same molecule?
A: The value was 118.22%.

Q: What about the “t1/2,λz point estimate, with vs without GLPG0259” value ([2]; day 14 vs day -7) of the same molecule?
A: The value was 110.64%.
